From US11667631B2, “FGFR4 inhibitor, preparation method therefor, and applications thereof” (Jiangsu Hansoh Pharmaceutical Group Co., Ltd., priority 2016, dated 2023)
Like-named read-outs stand apart in the source and are kept apart here.

Key:
Hep 3B cells = assay: Inhibition of Hep 3B cell proliferation (CellTiter-Glo); assay type: cell-based; conditions: Homo sapiens, Hep3B
Protocol: In this experiment, the inhibitory effect of the compounds on Hep 3B cell proliferation was tested by a CellTiter-Glo method, and the half maximal inhibitory concentration (IC50) of the compounds on the activity of cell proliferation was determined.
1) A 96-well cell culture plate was seeded with 50˜100 μL of Hep 3B cell suspension at a density of 1˜5×10^4 cells/ml. The culture plate was incubated in an incubator for 16˜24 hours (37° C., 5% CO2).
(§1) 2) Different concentrations of the test compound in a gradient dilution were added to the cells in the culture plate. The culture plate was incubated in an incubator for 72 hours (37° C., 5% CO2).
(§2) 3) 50˜100 μL of CellTiter-Glo reagent were added to each well. Then, the culture plate was shaken or left to stand for 5˜30 minutes at room temperature.
(§3) 4) The chemiluminescence signal values of each plate were determined by a microplate reader.
(§4) 5) The inhibition rates were calculated according to the chemiluminescence signal values.

FGFR1 kinase = FGFR1 kinase (Homo sapiens (Human), UniProt P11362); assay: Enzymologic experiment of FGFR1 (TR-FRET); assay type: biochemical; conditions: FGFR1 kinase activity
Protocol: In this experiment, the inhibitory effect of the compounds on FGFR1 kinase activity was tested by a fluorescence resonance energy transfer (TR-FRET) method, and the half maximal inhibitory concentration (IC50) of the compounds on the FGFR1 kinase activity was determined.
1) 1˜5 μL of FGFR1 enzyme solution was added to a 384-well plate, and the final concentration of the enzyme was 0.1˜5 nM.
(§5) 2) 1˜5 μL of diluted solution in gradient of the compound was added.
(§6) 3) 1˜5 μL of a substrate mixture containing substrate polypeptide with a final concentration of 5˜50 nM and ATP with a final concentration of 10˜200 μM was added.
(§7) 4) The mixture was incubated for 0.5˜3 hours at room temperature.
(§8) 5) 10 μL of EDTA and a test solution comprising labeled antibody were added, and the plate was incubated for 1 hour at room temperature.
6) The fluorescence signal values of each plate were determined by a microplate reader at 665 nm.
(§9) 7) The inhibition rates were calculated according to the fluorescence signal values.
8) The IC50 of the compound was obtained by curve fitting according to the inhibition rates at different concentrations, and the enzymatic activity of the specific example compounds is shown in Table 1.

SK-HEP-1 cells = assay: Inhibition of SK-HEP-1 cell proliferation (CellTiter-Glo); assay type: cell-based; conditions: Homo sapiens, read-out: SK-HEP-1 IC50
Protocol: In this experiment, the inhibitory effect of the compounds on SK-HEP-1 cell proliferation was tested by a CellTiter-Glo method, and the half maximal inhibitory concentration (IC50) of the compounds on the activity of cell proliferation was determined.
1) A 96-well cell culture plate was seeded with 50˜100 μL of SK-HEP-1 cell suspension at a density of 1˜5×10^4 cells/ml. The culture plate was incubated in an incubator for 16˜24 hours (37° C., 5% CO2).
as §1, §2, §3, §4
(§10) 6) The IC50 of the compound was obtained by curve fitting according to the inhibition rates at different concentrations, and the cell activity of the specific example compounds is shown in Table 2.

FGFR4 kinase = FGFR4 kinase (Homo sapiens (Human), UniProt P22455); assay: Enzymologic experiment of FGFR4 (TR-FRET); assay type: biochemical; conditions: FGFR4 kinase activity
Protocol: In this experiment, the inhibitory effect of the compounds on FGFR4 kinase activity was tested by a fluorescence resonance energy transfer (TR-FRET) method, and the half maximal inhibitory concentration (IC50) of the compounds on the FGFR4 kinase activity was determined.
as §5, §6, §7, §8, §9

HuH-7 cells = assay: Inhibition of HuH-7 cell proliferation (CellTiter-Glo); assay type: cell-based; conditions: Homo sapiens, read-out: HuH-7 IC50
Protocol: In this experiment, the inhibitory effect of the compounds on HuH-7 cell proliferation was tested by a CellTiter-Glo method, and the half maximal inhibitory concentration (IC50) of the compounds on the activity of cell proliferation was determined.
1) A 96-well cell culture plate was seeded with 50˜100 μL of HuH-7 cell suspension at a density of 1˜5×10^4 cells/ml. The culture plate was incubated in an incubator for 16˜24 hours (37° C., 5% CO2).
as §1
3) 50˜100 μL of CellTiter-Glo reagent was added to each well. Then, the culture plate was shaken or left to stand for 5˜30 minutes at room temperature.
as §3, §4, §10

[1] = Pharmacokinetic (PK) analysis in rats; assay type: in vivo, Sprague Dawley (SD) rats; conditions: SD rats, single intragastric administration, 5 mg/kg
Protocol: 1) 0.2 ml of intravenous blood was collected and placed in a K2EDTA test tube. The blood was centrifuged at room temperature at the speed of 1000˜3000×g for 5˜20 minutes to isolate the plasma, which was then stored at −80° C.
2) 160 μL of acetonitrile was added to 40 μL of plasma sample for precipitation, and then the mixture was centrifuged at the speed of 500˜2000×g for 5˜20 minutes.
3) 100 μL of treated solution was taken, and the concentration of the test compound was analyzed by LC/MS/MS. The LC/MS/MS analytical instrument was AB Sciex API 4000. • Liquid chromatography analysis: • Condition of Liquid chromatography: Shimadzu LC-20AD pump • Chromatographic column: phenomenex Gemiu 5 um C18 50×4.6 mm • Mobile phase: Solution A is 0.1% formic acid aqueous solution, and Solution B is acetonitrile • Flow rate: 0.8 mL/min • Elution time: 0-3.5 minutes, the eluent was used as follows: […]

[2] = Hep 3B cell proliferation, 72 hours, CellTiter-Glo, read-out: Hep 3B IC50
[3] = SK-HEP1, SK-HEP-1 cell proliferation, 72 hours, CellTiter-Glo
[4] = HuH-7 cell proliferation, 72 hours, CellTiter-Glo

Chain of FGFR1 kinase (P11362 22-822): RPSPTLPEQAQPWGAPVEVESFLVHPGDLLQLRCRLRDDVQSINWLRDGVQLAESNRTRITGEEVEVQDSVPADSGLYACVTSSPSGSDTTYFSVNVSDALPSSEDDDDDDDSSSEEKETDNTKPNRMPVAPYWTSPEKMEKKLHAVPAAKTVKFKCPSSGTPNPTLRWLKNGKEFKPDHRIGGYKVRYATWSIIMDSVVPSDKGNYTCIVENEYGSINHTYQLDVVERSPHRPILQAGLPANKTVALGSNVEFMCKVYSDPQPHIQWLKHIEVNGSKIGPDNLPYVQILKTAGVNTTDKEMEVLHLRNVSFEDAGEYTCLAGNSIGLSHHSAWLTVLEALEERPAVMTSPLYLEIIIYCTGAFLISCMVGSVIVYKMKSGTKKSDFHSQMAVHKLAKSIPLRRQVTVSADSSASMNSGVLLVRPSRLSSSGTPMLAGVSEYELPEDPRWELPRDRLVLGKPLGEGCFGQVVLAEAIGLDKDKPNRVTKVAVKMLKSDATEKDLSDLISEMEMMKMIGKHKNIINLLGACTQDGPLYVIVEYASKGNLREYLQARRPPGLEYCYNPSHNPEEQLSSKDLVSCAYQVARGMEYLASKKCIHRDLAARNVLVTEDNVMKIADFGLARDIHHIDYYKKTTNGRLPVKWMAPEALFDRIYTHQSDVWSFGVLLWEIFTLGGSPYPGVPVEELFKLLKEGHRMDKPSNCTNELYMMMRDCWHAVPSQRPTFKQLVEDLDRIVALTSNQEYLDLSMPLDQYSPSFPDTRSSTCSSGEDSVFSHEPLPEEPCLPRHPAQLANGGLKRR
Chain of FGFR4 kinase (P22455 22-802): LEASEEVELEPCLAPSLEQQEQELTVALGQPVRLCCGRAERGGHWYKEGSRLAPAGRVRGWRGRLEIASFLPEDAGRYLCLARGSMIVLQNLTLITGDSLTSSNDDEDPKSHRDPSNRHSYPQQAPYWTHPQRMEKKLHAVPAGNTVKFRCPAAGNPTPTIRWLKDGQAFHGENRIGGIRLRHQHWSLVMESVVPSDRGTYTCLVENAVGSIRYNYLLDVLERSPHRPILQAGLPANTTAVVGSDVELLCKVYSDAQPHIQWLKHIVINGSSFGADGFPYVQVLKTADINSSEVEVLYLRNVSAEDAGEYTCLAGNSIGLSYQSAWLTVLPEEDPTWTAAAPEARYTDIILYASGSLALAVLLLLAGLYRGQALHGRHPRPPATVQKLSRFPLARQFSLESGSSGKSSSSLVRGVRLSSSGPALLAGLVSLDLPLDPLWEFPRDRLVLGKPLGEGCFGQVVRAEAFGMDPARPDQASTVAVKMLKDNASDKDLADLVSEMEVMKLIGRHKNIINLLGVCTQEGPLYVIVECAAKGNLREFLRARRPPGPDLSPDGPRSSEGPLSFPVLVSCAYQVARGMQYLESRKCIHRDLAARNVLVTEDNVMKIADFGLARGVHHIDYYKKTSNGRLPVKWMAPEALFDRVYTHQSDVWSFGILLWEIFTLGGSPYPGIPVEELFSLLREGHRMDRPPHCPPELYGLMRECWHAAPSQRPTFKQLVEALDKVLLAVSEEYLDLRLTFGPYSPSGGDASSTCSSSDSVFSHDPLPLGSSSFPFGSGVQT

Structure (SMILES)	IC50 (FGFR1 kinase)	IC50 (SK-HEP-1 cells; [3])	IC50 (FGFR4 kinase)	IC50 (HuH-7 cells; [4])	IC50 (Hep 3B cells; [2])	IC50 (Hep 3B cells; 72 h, read-out: Hep 3B IC50, Hep 3B cell proliferation, 72 hours, CellTiter-Glo)	IC50 (SK-HEP-1 cells; SK-HEP1, 72 h)	Peak Time tmax ([1]; (sampling in hours))	AUC(0-t) ([1]; Sprague-Dawley, rat, plasma, po, read-out: Area Under Curve AUC0-t)	AUC(0-inf) ([1]; Sprague-Dawley, rat, plasma, po, read-out: Area Under Curve AUC0-∞)	half-life ([1]; Sprague-Dawley, rat, plasma, po, read-out: Half-Time t1/2 (converted))	MRT ([1]; Sprague-Dawley, rat, plasma, po, read-out: Mean Residence Time MRT)	Cmax ([1]; Sprague-Dawley, rat, plasma, po, read-out: Plasma Concentration Cmax)	IC50 (HuH-7 cells; Huh-7, 72 h)
COc1ncccc1CNc1cc(NC(=O)N2CCCc3cc(CN4CCOCC4=O)c(C=O)nc32)ncc1C#N [Example 57, N-(5-Cyano-4-(((2-methoxypyridin-3-yl)methyl)amino)pyridin-2-yl)-7-formyl-6-((3-carbonylmorpholino)methyl)-3,4-dihydro-1,8-naphthyridin-1(2H)-carboxamide]	> 10000 nM	> 10000 nM	7.63 nM	24.3 nM	10.2 nM	–	–	–	–	–	–	–	–	–
CO[C@@H]1CCN(c2cc(NC(=O)N3CCCc4cc(CN5CCN(C)CC5=O)c(C=O)nc43)ncc2C#N)C1 [Example 64, (R)-N-(5-Cyano-4-(3-methoxypyrrolidin-1-yl)pyridin-2-yl)-7-formyl-6-((4-methyl-2-carbonylpiperazin-1-yl)methyl)-3,4-dihydro-1,8-naphthyridin-1(2H)-carboxamide]	> 10000 nM	> 10000 nM	1.62 nM	14.6 nM	5.3 nM	–	–	–	–	–	–	–	–	–
C[C@H]1COC(=O)N1Cc1cc2c(nc1C=O)N(C(=O)Nc1cc(S[C@H]3CCOC3)c(C#N)cn1)CCC2 [Example 45, N-(5-Cyano-4-(((S)-tetrahydrofuran-3-yl)thio)pyridin-2-yl)-7-formyl-6-(((S)-4-methyl-2-carbonyloxazolidin-3-yl)methyl)-3,4-dihydro-1,8-naphthyridin-1(2H)-carboxamide]	> 10000 nM	> 10000 nM	4.66 nM	32.2 nM	14.2 nM	–	–	–	–	–	–	–	–	–
COC[C@H](C)Nc1cc(NC(=O)N2CCCc3cc(CN4CCCCOC4=O)c(C=O)nc32)ncc1C#N [Example 30]	> 10000 nM	> 10000 nM	2.5 nM	13.4 nM	4.6 nM	–	–	–	–	–	–	–	–	–
N#Cc1cnc(NC(=O)N2CCCc3cc(CN4CCCCOC4=O)c(C=O)nc32)cc1S[C@H]1CCOC1 [Example 36]	> 10000 nM	> 10000 nM	4.25 nM	20.4 nM	8 nM	–	–	–	–	–	–	–	–	–
CO[C@@H]1COCC1Nc1cc(NC(=O)N2CCCc3cc(CN4CCCCOC4=O)c(C=O)nc32)ncc1C#N (stereo partly drawn) [Example 37, N-(5-Cyano-4-(((trans)-4-methoxytetrahydrofuran-3-yl)amino)pyridin-2-yl)-7-formyl-6-((2-carbonyl-1,3-oxazepin-3-yl)methyl)-3,4-dihydro-1,8-naphthyridin-1(2H) -carboxamide]	> 10000 nM	> 10000 nM	1.12 nM	4.1 nM	2.8 nM	–	–	–	–	–	–	–	–	–
CO[C@@H]1CCN(c2cc(NC(=O)N3CCCc4cc(CN5CCOC5=O)c(C=O)nc43)ncc2C#N)C1 [Example 41, (R)-N-(5-Cyano-4-(3-methoxypyrrolidin-1-yl)pyridin-2-yl)-7-formyl-6-((2-carbonyloxazolidin-3-yl)methyl)-3,4-dihydro-1,8-naphthyridin-1(2H)-carboxamide]	> 10000 nM	–	–	–	–	9.9 nM	> 10000 nM	2 h	2880 ng·h/mL	2960 ng·h/mL	1.17 h	3.12 h	1920 ng/mL	10.2 nM
CO[C@H]1COCC1Oc1cc(NC(=O)N2CCCc3cc(CN4C(=O)OC[C@@H]4C)c(C=O)nc32)ncc1C#N (stereo partly drawn) [Example 47, N-(5-Cyano-4-(((3,4)-trans-4-methoxytetrahydrofuran-3-yl)oxy)pyridin-2-yl)-7-formyl-6-(((S)-4-methyl-2-carbonyloxazolidin-3-yl)methyl)-3,4-dihydro-1,8-naphthyridin-1(2H)-carboxamide]	> 10000 nM	> 10000 nM	4.95 nM	24.4 nM	9.9 nM	–	–	–	–	–	–	–	–	–
N#Cc1cnc(NC(=O)N2CCCc3cc(CN4CCOCC4=O)c(C=O)nc32)cc1NCCN1CCCC1 [Example 2, N-(5-Cyano-4-((2-(pyrrolidin-1-yl)ethyl)amino)pyridin-2-yl)-7-formyl-6-((3-carbonylmorpholino)methyl)-3,4-dihydro-1,8-naphthyridin-1(2H)-carboxamide]	> 10000 nM	–	2.9 nM	–	–	–	–	–	–	–	–	–	–	–

Further lines, with some results ahead:

IC50 (FGFR1 kinase)	IC50 (SK-HEP-1 cells; [3])	IC50 (FGFR4 kinase)	IC50 (HuH-7 cells; [4])	Structure (SMILES)	IC50 (Hep 3B cells; [2])	IC50 (Hep 3B cells; 72 h, read-out: Hep 3B IC50, Hep 3B cell proliferation, 72 hours, CellTiter-Glo)	IC50 (SK-HEP-1 cells; SK-HEP1, 72 h)	Peak Time tmax ([1]; (sampling in hours))	AUC(0-t) ([1]; Sprague-Dawley, rat, plasma, po, read-out: Area Under Curve AUC0-t)	AUC(0-inf) ([1]; Sprague-Dawley, rat, plasma, po, read-out: Area Under Curve AUC0-∞)	half-life ([1]; Sprague-Dawley, rat, plasma, po, read-out: Half-Time t1/2 (converted))	MRT ([1]; Sprague-Dawley, rat, plasma, po, read-out: Mean Residence Time MRT)	Cmax ([1]; Sprague-Dawley, rat, plasma, po, read-out: Plasma Concentration Cmax)	IC50 (HuH-7 cells; Huh-7, 72 h)
> 10000 nM	> 10000 nM	4.41 nM	8.1 nM	COCCNc1cc(NC(=O)N2CCCc3cc(CN4C(=O)OCC45CC5)c(C=O)nc32)ncc1C#N [Example 43, N-(5-Cyano-4-((2-methoxyethyl)amino)pyridin-2-yl)-7-formyl-6-((5-carbonyl-6-oxa-4-azaspiro[2.4]heptan-4-yl)methyl)-3,4-dihydro-1,8-naphthyridin-1(2H)-carboxamide]	8.1 nM	–	–	–	–	–	–	–	–	–
> 10000 nM	> 10000 nM	1.34 nM	19.4 nM	CO[C@H]1CCOCC1Nc1cc(NC(=O)N2CCCc3cc(CN4CCOCC4=O)c(C=O)nc32)ncc1C#N (stereo partly drawn) [Example 70, N-(5-Cyano-4-(((3,4)-trans-4-methoxytetrahydro-2H-pyran-3-yl)amino)pyridin-2-yl)-7-formyl-6-((3-carbonylmorpholino)methyl)-3,4-dihydro-1,8-naphthyridin-1(2H) -carboxamide]	6.2 nM	–	–	–	–	–	–	–	–	–
> 10000 nM	> 10000 nM	0.6 nM	10.2 nM	COCCNc1cc(NC(=O)N2CCCc3cc(CN4CCCN(C)CC4=O)c(C=O)nc32)ncc1C#N [Example 7, N-(5-Cyano-4-((2-methoxyethyl)amino)pyridin-2-yl)-7-formyl-6-((4-methyl-2-carbonyl-1,4-diazoheptyl-1-yl)methyl)-3,4-dihydro-1,8-naphthyridin-1(2H)-carboxamide]	1.4 nM	–	–	–	–	–	–	–	–	–
> 10000 nM	> 10000 nM	1.71 nM	13.4 nM	COCCNc1cc(NC(=O)N2CCCc3cc(CN4C(=O)COCC45CC5)c(C=O)nc32)ncc1C#N [Example 21, N-(5-Cyano-4-((2-methoxyethyl)amino)pyridin-2-yl)-7-formyl-6-((5-carbonyl-7-oxa-4-azaspiro[2.5]octane-4-yl)methyl)-3,4-dihydro-1,8-naphthyridin-1(2H)-carboxamide]	8.6 nM	–	–	–	–	–	–	–	–	–
